Measurements taken from patent US20080306230A1, “Composition and Associated Method” (GENERAL ELECTRIC COMPANY, priority 2007, published 2008).

Assay: Solubility of the product as observed
Assay type: physicochemical
Settings: in words; water or methanol
Experimental: 5-norbornene-2-methanol (CAS 95-12-5, 1 gram) and sodium hydride (NaH, 60% dispersion in mineral oil, 0.6 grams) are dissolved in 50 milliliters of anhydrous THF. The mixture is refluxed overnight at 80 degrees C. After refluxing, 1,3-propane sultone (CAS 1120-71-4, 0.98 grams) in 20 milliliters of THF is added to the mixture in 10 minutes. After 5 hours, the solvent is removed by rotary evaporation and the reaction product is purified by column chromatography using silica and ethyl acetate/methanol (4:1) as eluent. […] The product yield is about 60 weight percent.
A ruthenium metal complex 1,3-bis(2,4,6-trimethylphenyl)-2-imidazolidinylidene)dichloro(phenylmethylene)(tricyclohexylphosphine)ruthenium (CAS No. 246047-72-3, 5 milligrams) is charged in a HPLC flask and the flask is degassed and purged with argon three times. Methylene chloride (CH2Cl2, 50 microliters) is injected into the flask using a syringe. The metal complex solution is cooled at −78 degrees Celsius in a dry ice and acetone bath. Norbornene sulfonate (10 milligrams, Sample 1 from Example 1) is charged into a second flask and degassed and the flask is backfilled with argon three times. Degassed methanol (500 microliters) is added to norbornene sulfonate using a syringe. The resulting mixture is also cooled at −78 degrees Celsius. […]

## O=S(=O)([O-])C1CC2C=CC1C2.[Na+] (stereo not shown) [Sample 1, norbornene-sodium sulfonate]
  solubility: soluble in water or methanol
